Test results: patent publication US20070105721A1, “Vinylogous 4-Hpyrones and their use in promoting plant growth” (priority 2003, published 2007)

Experiments:
Assay type in all cases: in vivo
[1] = test system: Conostylis aculeata seeds; assay: Native bioassay
Method: (§1) Conostylis aculeata and Stylidium affine seeds were obtained from Nindethana seed service and stored before use. For testing of aqueous samples, three replicates of 20-30 sterilised seeds were added to UV sterilised petri dishes (90 mm), containing two Whatman No. 1 filter papers (7 cm) moistened with the filtered test solution (2.5 mL, 0.22 μm). MP water was used as a control for each experiment and dilutions of each sample were used to ensure the optimum concentration range for activity. Petri dishes were then sealed with parafilm and incubated in the dark at 20±1° C. The seeds were scored on a weekly basis with optimum germination achieved between 4-6 weeks.

Lawrencella davenportii = assay: Germination on moist filter paper in petri dishes; details: SW 1/10 dilution, compound 1a 10 ppb
[2] = test system: Gompholobium tomentosum seeds; assay: Seed vigour enhancement (cumulative germination); details: compound 1a at 100 ppb; FIG. 3
Method: (§2) For each species, five replicates of 20 seeds were placed on Petri dishes lined with seed germination paper. The Petri dishes were moistened with de-ionised water (control) or 100 ppb compound 1a. All species were incubated in constant darkness at 12/12 hr alternating temperatures of 7/18° C., 13/26° C. or 18/33° C. Germination was scored on radicle emergence and was recorded every 2-3 days until germination had ceased.

Hakea undulata seeds = assay: Seed vigour enhancement (cumulative germination); details: compound 1a at 100 ppb; FIG. 4
Method: as §2

Melaleuca carrii seeds = assay: Seed vigour enhancement (cumulative germination); details: compound 1a at 100 ppb; FIG. 3
Method: as §2

[3] = test system: Acetosa vesicaria (ruby dock); assay: Weed germination enhancement; details: compound 1a at 100 ppb; note: tested at 0.1 ppm
Method: as §2, with “four” for “five”, “25” for “20”, “(radicle emergence)” for “was scored on radicle emergence and”

Avena fatua (wild oats) = assay: Weed germination enhancement; details: compound 1a at 100 ppb; mean ± standard error; note: tested at 0.1 ppm
Method: as §2, with “four” for “five”, “25” for “20”, “(radicle emergence)” for “was scored on radicle emergence and”

[4] = test system: Brassica tournefortii (wild turnip); assay: Weed germination enhancement; details: compound 1a at 100 ppb; note: tested at 0.1 ppm
Method: as §2, with “four” for “five”, “25” for “20”, “(radicle emergence)” for “was scored on radicle emergence and”

Conostylis aculeata = assay: Germination enhancement of species used in amenity horticulture; details: compound 1a at 100 ppb; constant darkness at 18° C.; mean ± standard error; note: tested at 0.1 ppm
Method: (§3) For each species, three replicates of 25 seeds were placed on Petri dishes lined with seed germination paper. The Petri dishes were moistened with de-ionised water (control) or 100 ppb compound 1a. All species were incubated in constant darkness at 18° C. Germination (radicle emergence) was recorded five times a week.

Emmenanthe penduliflora = assay: as above; details: compound 1a at 100 ppb; constant darkness at 18° C. Note: tested at 0.1 ppm.
Method: as §3

Passerina vulgaris = assay: as above; details: compound 1a at 100 ppb; constant darkness at 18° C. Note: tested at 0.1 ppm.
Method: as §3

Rhodocoma arida = assay: as above; details: compound 1a at 100 ppb; constant darkness at 18° C. Note: tested at 0.1 ppm.
Method: as §3

Stylidium affine = assay: as above; details: compound 1a at 100 ppb; constant darkness at 18° C. Note: tested at 0.1 ppm.
Method: as §3

Syncarpha vestita = assay: as above; details: compound 1a at 100 ppb; constant darkness at 18° C. Note: tested at 0.1 ppm.
Method: as §3

Microlaena stipoides = assay: Germination enhancement of species used in rangeland pasture systems; details: 100 ppb compound 1a; constant darkness at 18° C.; mean ± standard error
Method: as §3, with “Three” for “For each species, three”, “every 2-3 days until germination had ceased.” for “five times a week.”

Borya sphaerocephala = assay: Seed priming; details: 24 hr priming in 100 ppb compound 1a, re-drying and sowing; note: tested at 0.1 ppm
Method: (§4) For testing on Australian species, three replicates of 25 seeds were soaked in one of de-ionised DI water or 100 ppb compound 1a for 24 hr at 23° C. The seeds were re-dried at 23° C. for 24 hr and incubated on Petri dishes containing 0.7% (w/v) water agar in constant darkness at 18° C. Germination (radicle emergence) was recorded every 2-3 days until germination had ceased.

Centrolepis aristate = assay: Seed priming; details: 24 hr priming in 100 ppb compound 1a, re-drying and sowing; note: tested at 0.1 ppm
Method: as §4

Cherianthera preissiana = assay: Seed priming; details: 24 hr priming in 100 ppb compound 1a, re-drying and sowing; note: tested at 0.1 ppm
Method: as §4

Opercularia vaginate = assay: Seed priming; details: 24 hr priming in 100 ppb compound 1a, re-drying and sowing; note: tested at 0.1 ppm
Method: as §4

Phyllanthus calycinus = assay: Seed priming; details: 24 hr priming in 100 ppb compound 1a, re-drying and sowing; note: tested at 0.1 ppm
Method: as §4

[5] = test system: Podolepis canescens seeds; assay: Compound 1a as a replacement for light or gibberellic acid; details: 1, 10 or 100 ppb compound 1a; similar to gibberellic acid
Method: Three replicates of 50 seeds of Podolepis canescens were placed on Petri dishes containing filter paper moistened with de-ionised water (control), 1, 10 or 100 ppb compound 1a or 1000 ppm gibberellic acid. The Petri dishes were incubated at 12/12 hr alternating temperatures of 7/18° C., 13/26° C. or 18/33° C. and incubated in white light or continuous darkness. All of the treatments were added to the Petri dishes in complete darkness prior to moving to the incubators. Germination was recorded following 7 days incubation.

test species = assay: Germination tests in a range of test species; details: each of the test species
Method: Grand Rapids Lettuce seeds (Waltham strain) were obtained from R.B. Dessert Seed Co. and were frozen in sachets until use. For testing of aqueous samples, 2.5 mL of test solution was applied to three replicates of 40-50 seeds in Petri dishes (90 mm) lined with two layers of Whatman No. 1 filter paper (7 cm). Millipore filtered water (MP water) was used as a control for each experiment and dilutions of each sample were used to ensure the optimum concentration range for activity. Fractions were reconstituted to their original concentration (before fractionation) and dilutions were made using MP water. Petri dishes were sealed with a layer of plastic wrap, and stored in a light proof container. All manipulations involving the seed were carried out in a dark room and germinants, based on the appearance of a radicle, were scored after 48 hours incubation.
as §1, with “MP water was used as a control for each experiment and dilutions of each sample were used to ensure the optimum concentration range for activity. Petri dishes were then sealed with parafilm and incubated in the dark at 20±1° C.” left out

**Q.** Which Conostylis aculeate germination ([1]; 1/10 000 of compound 1a 1 mg/L) does the source give for `Cc1c2ccocc-2oc1=O` [Compound 1a, 3-Methyl-2H-furo[2,3-c]pyran-2-one] here?
**A.** 29.4 (3.4) %

**Q.** And the Conostylis aculeate germination ([1]; 1/10 (of neat SW; of compound 1a 1 mg/L))?
**A.** 48.2 (4.0) %

**Q.** What about the Conostylis aculeate germination ([1]; 1/100 (of neat SW; of compound 1a 1 mg/L)) of the same compound?
**A.** 50.6 (6.5) %

**Q.** What about the Conostylis aculeate germination ([1]; 1/1000 of compound 1a 1 mg/L) of the same compound?
**A.** 43.0 (4.5) %

**Q.** What about the Conostylis aculeate germination ([1]; Neat (neat SW; compound 1a 1 mg/L), mean (SEM)) of the same compound?
**A.** 46.3 (3.1) %

**Q.** What about the “Germination, Conostylis aculeata” value ([1]; compounds isolated from smoke, mean (SEM)) of the same compound?
**A.** 46.5 (4.9) %

**Q.** And the “Germination, Lawrencella davenportii” value (Lawrencella davenportii)?
**A.** 56.3 (±8.5) b %

**Q.** And the “germination rate (cumulative germination), Gompholobium tomentosum” value [2]?
**A.** improved germination rate

**Q.** What about the “germination rate (cumulative germination), Hakea undulata” value (Hakea undulata seeds) of the same compound?
**A.** improved germination rate

**Q.** What about the “germination rate (cumulative germination), Melaleuca carrii” value (Melaleuca carrii seeds) of the same compound?
**A.** improved germination rate

**Q.** And the “germination percentage, Acetosa vesicaria (ruby dock)” value [3]?
**A.** 30.0 ± 7.6 b %

**Q.** What about the “germination percentage, Avena fatua (wild oats)” value (Avena fatua (wild oats)) of the same compound?
**A.** 38.0 ± 4.3 b %

**Q.** What about the “germination percentage, Brassica tournefortii (wild turnip)” value [4] of the same compound?
**A.** 92.0 ± 2.8 b %

**Q.** And the “Germination, Conostylis aculeata” value (Conostylis aculeata)?
**A.** 48.2 ± 3.9 b

**Q.** And the “Germination, Emmenanthe penduliflora” value (Emmenanthe penduliflora)?
**A.** 82.0 ± 4.2 b

**Q.** And the “Germination, Passerina vulgaris” value (Passerina vulgaris)?
**A.** 10.0 ± 4.1 b

**Q.** What about the “Germination, Rhodocoma arida” value (Rhodocoma arida) of the same compound?
**A.** 53.3 ± 3.1 b

**Q.** What about the “Germination, Stylidium affine” value (Stylidium affine) of the same compound?
**A.** 83.4 ± 3.7 b

**Q.** What about the “Germination, Syncarpha vestita” value (Syncarpha vestita) of the same compound?
**A.** 77.5 ± 6.3 b

**Q.** And the “Germination, Microlaena stipoides” value (Microlaena stipoides)?
**A.** 78.3 ± 6.7 b

**Q.** What about the “Germination (%), Borya sphaerocephala” value (Borya sphaerocephala) of the same compound?
**A.** 13.3 ± 4.8 b %

**Q.** And the “Germination (%), Centrolepis aristate” value (Centrolepis aristate)?
**A.** 88.0 ± 0.0 b %

**Q.** And the “Germination (%), Cherianthera preissiana” value (Cherianthera preissiana)?
**A.** 46.7 ± 4.8 b %

**Q.** What about the “Germination (%), Opercularia vaginate” value (Opercularia vaginate) of the same compound?
**A.** 22.7 ± 7.4 b %

**Q.** What about the “Germination (%), Phyllanthus calycinus” value (Phyllanthus calycinus) of the same compound?
**A.** 17.3 ± 1.3 b %

**Q.** What about the “germination in the dark of light-requiring Podolepis canescens” value [5] of the same compound?
**A.** stimulates germination in the dark

**Q.** What about the “concentration for which germination promoting activity has been shown” value (test species) of the same compound?
**A.** 100 ppt
